{"source": "patent US11235001B2", "about": "“RUNX inhibitor” (KYOTO UNIVERSITY, priority 2016, dated 2022)", "key": {"IL3, CSF2 and CSF2RB": {"system": "IL3, CSF2 and CSF2RB", "test": "qRT-PCR of RUNX1 target genes in MV4-11 cells", "format": "cell-based, human", "details": "5 μM, 6 hours"}, "[1]": {"system": "BCL11A, TRIM24, p53, p21, BAX, PUMA and MDM2", "test": "qRT-PCR of p53 suppressors and p53 target genes in MV4-11 cells", "format": "cell-based, human", "details": "1 μM, 6 hours", "procedure": "A total RNA was isolated with RNeasy mini kit (Qiagen) and reverse transcribed with Reverse script kit (TOYOBO) to generate cDNA. Real-time quantitative polymerase chain reaction (PCR) was carried out with 7500 Real-Time PCR System (Applied Biosystems) according to the manufacturer's instructions. Results were normalized to GAPDH levels. Relative expression levels were calculated using the 2-ΔΔCt method."}, "[2]": {"system": "RUNX family (RUNX1, RUNX2 and RUNX3)", "test": "Gene expression microarray in MV4-11 cells vs RUNX family knockdown", "format": "cell-based, human", "details": "1 μM, 6 hours, top 500 up- and down-regulated genes"}, "[3]": {"system": "BCL11A, TRIM24, p21, BAX, PUMA, MDM2, PARP, cleaved caspase-3", "test": "Immunoblotting of p53 pathway and apoptosis proteins in MV4-11 cells", "format": "cell-based, human", "details": "1 μM, 24 hours", "procedure": "Cells were washed twice with ice cold phosphate-buffered saline (PBS) and harvested in protein lysis buffer [50 mM Tris (pH 7.4), 100 mM NaCl, 0.1 mM EDTA, 1 mM phenylmethylsulfonyl fluoride, 1 mM β-glycerophosphate, 2.5 mM sodium pyrophosphate, 1 mM Na3VO4, lx protease inhibitor (Roche) and PhosSTOP (Roche)]. Whole cell extracts were separated by SDS-polyacrylamide gel electrophoresis (SDS-PAGE) and electrotransferred onto polyvinylidene difluoride membranes. Membranes were probed with the following antibodies: anti-Ctip1 antibody (Abcam, ab19487), anti-TRIM24 antibody (Bethyl Laboratories, Inc), anti-RUNX1 antibody (A-2), anti-GAPDH (FL-335), anti-p21 (C-19), anti-Bax (N-20) antibodies (Santa Cruz Biotechnology, Inc.), anti-RUNX2, anti-RUNX3, anti-p53 antibodies (Cell Signaling Technology), anti-CBFβ antibody (FL-182, Santa Cruz Biotechnology, Inc.), anti-cleaved caspase-3 antibody (5A1E, Cell Signaling Technology), anti-PARP antibody (46D11, Cell Signaling Technology). For secondary antibodies, anti-rabbit IgG, or anti-mosue IgG HRP-linked antibodies (Cell Signaling Technology) were used. Blots were detected using Chemi-Lumi One Super (nacalai tesque, Inc.) and ChemiDoc™ XRS+ Imager (Bio-Rad Laboratories, Inc.), as recommended by the manufacturers. Protein levels were quantified with Image Lab Software (Bio-Rad Laboratories, Inc.).\nBriefly, MV4-11 cells were treated with 1 μM Chb-M′ or Chb-50 for 24 hours. The treated cells were dissolved in the protein lysis buffer. Whole cell extracts were resolved by SDS-polyacrylamide gel electrophoresis (SDS-PAGE) and transferred onto polyvinylidene difluoride membranes. The membranes were probed with each antibody. Blots were detected and quantified. As a control, the cells treated with DMSO were used."}, "[4]": {"system": "AML cell lines expressing functional p53 (MV4-11, OCI-AML2, OCI-AML3 and MOLM-13)", "test": "Growth inhibition assay of AML cell lines expressing functional p53", "format": "cell-based, human", "details": "48 hours; at between nanomolar to low micromolar levels", "procedure": "Growth inhibition of some AML cell lines expressing functional p53 (MV4-11, OCI-AML2, OCI-AML3 and MOLM-13) by PI polyamide conjugates at different concentrations was tested. Briefly, the cells were placed at a density of 1×10^5 cells/mL. Different concentrations of a PI polyamide conjugate (Chb-M′ or Chb-50) were added to media, and the cells were incubated for 48 hours (n=3). The number of viable cells when the PI polyamide conjugate was not added was used as a control (DMSO control). Cell viability was assessed by counting the viable cells with Cell Count Reagent SF (Nacalai tesque, Inc.) and Infinite (registered trademark) 200 PRO multimode reader (TECAN) according to the manufacturer's instructions."}, "SU-Ph2 cells": {"system": "SU-Ph2 cells", "test": "Cell growth inhibition assay, SU-Ph2 cells", "format": "cell-based, human", "details": "SU-Ph2, 48 hours"}, "SU/SR cells [5]": {"system": "SU/SR cells", "details": "read-out: IC50 value; SU/SR (imatinib-resistant), 48 hours"}, "HL60": {"system": "HL60", "test": "cells", "details": "Homo sapiens, HL-60, 48 h, read-out: IC50 (μM) of PRIMA-1 single agent administration"}, "KG1a": {"system": "KG1a", "test": "cells", "details": "Homo sapiens, KG-1a, 48 h, read-out: IC50 (μM) of PRIMA-1 single agent administration"}, "MV4-11NR": {"system": "MV4-11NR", "test": "cells", "details": "Homo sapiens, 48 h, read-out: IC50 (μM) of PRIMA-1 single agent administration"}, "THP-1": {"system": "THP-1", "test": "cells", "details": "Homo sapiens, THP-1, 48 h, read-out: IC50 (μM) of PRIMA-1 single agent administration"}, "Kasumi-1": {"system": "Kasumi-1", "test": "cells", "details": "Homo sapiens, Kasumi 1, 48 h, read-out: IC50 (μM) of PRIMA-1 single agent administration"}, "MV4-11 cells": {"system": "MV4-11 cells", "test": "Xenograft AML mouse model (MV4-11)", "format": "in vivo", "details": "NOG mice with MV4-11, day 14"}, "A549 cells": {"system": "A549 cells", "test": "Xenograft lung cancer mouse model (A549)", "format": "in vivo"}, "[6]": {"system": "medulloblastoma cell line DAOY", "test": "cells", "details": "Homo sapiens, 48 h"}, "DU-145 cells": {"system": "DU-145 cells", "test": "cells", "details": "Homo sapiens, DU-145, 48 h, read-out: IC50 (μM) in DU-145 cells"}, "[7]": {"system": "p53-mutated colon cancer cell line HT29", "details": "HT29, 72 hours"}, "LNCaP cells": {"system": "LNCaP cells", "test": "cells", "details": "Homo sapiens, 48 h, read-out: IC50 (μM) in LNCaP cells"}, "UF1 (p53Null)": {"system": "UF1 (p53Null)", "test": "cells", "details": "Homo sapiens"}, "NB4 (p53MT)": {"system": "NB4 (p53MT)", "test": "cells", "details": "Homo sapiens"}, "SU/SR cells [8]": {"system": "SU/SR cells", "test": "Xenograft ALL mouse model (SU/SR)", "format": "in vivo", "details": "NOG mice with SU/SR"}}, "data": [{"smiles": "CN(C)CCCNC(=O)c1nc(NC(=O)c2nc(NC(=O)c3cc(NC(=O)c4nc(NC(=O)CCCNC(=O)c5cc(NC(=O)c6nc(NC(=O)c7cc(NC(=O)c8cc(NC(=O)CCNC(=O)CCCc9ccc(N(CCCl)CCCl)cc9)cn8C)cn7C)cn6C)cn5C)cn4C)cn3C)cn2C)cn1C", "note": "[Chb-50]", "values": [{"measurement": "Expressions of RUNX1 target genes (IL3, CSF2, and CSF2RB), mRNA", "setting": "IL3, CSF2 and CSF2RB", "result": "effectively inhibited"}, {"measurement": "Gene expressions of p53 suppressors BCL11A and TRIM24", "setting": "[1]", "result": "down-regulated"}, {"measurement": "mRNA expression level of p53", "setting": "[1]", "result": "unchanged"}, {"measurement": "mRNA expression levels of p21 and PUMA", "setting": "[1]", "result": "increased"}, {"measurement": "Gene expression pattern vs cells with all RUNX family members knockdown", "setting": "[2]", "result": "significantly correlated"}, {"measurement": "Cleaved form of PARP and cleaved caspase-3 (apoptosis)", "setting": "[3]", "result": "emergence"}, {"measurement": "Protein expression levels of p53 and downstream proteins (p21, BAX)", "setting": "[3]", "result": "increased"}, {"measurement": "Protein expression levels of suppressors of p53 (BCL11A and TRIM24)", "setting": "[3]", "result": "reduced"}, {"measurement": "Growth inhibition of AML cells", "setting": "[4]", "result": "highly effective"}, {"measurement": "IC50 compared with that of imatinib", "setting": "SU-Ph2 cells", "result": "lower IC50 values"}, {"measurement": "IC50", "setting": "SU/SR cells [5]", "result": 1420, "unit": "nM"}]}, {"smiles": "O=C1C2CCN(CC2)C1(CO)CO", "note": "[PRIMA-1, 2,2-bis(hydroxymethyl)-1-azabicyclo[2.2.2]octan-3-one]", "values": [{"measurement": "IC50", "setting": "HL60", "result": 5.74, "unit": "µM"}, {"measurement": "IC50", "setting": "KG1a", "result": "> 100", "unit": "µM"}, {"measurement": "IC50", "setting": "MV4-11NR", "result": 5.5, "unit": "µM"}, {"measurement": "IC50", "setting": "THP-1", "result": 6, "unit": "µM"}, {"measurement": "IC50", "setting": "Kasumi-1", "result": 7.03, "unit": "µM"}]}, {"smiles": "Nc1ccn([C@@H]2O[C@H](CO)[C@@H](O)[C@@H]2O)c(=O)n1", "note": "[cytarabine, reference compound]", "values": [{"measurement": "H&E staining of bone marrow", "setting": "MV4-11 cells", "result": "little change"}, {"measurement": "hCD45 staining of bone marrow (human leukemia cells)", "setting": "MV4-11 cells", "result": "filled with leukemia cells"}]}, {"smiles": "COc1cc2ncnc(Nc3ccc(F)c(Cl)c3)c2cc1OCCCN1CCOCC1", "note": "[gefitinib, reference compound]", "values": [{"measurement": "Effect on the lung cancer model", "setting": "A549 cells; A549 xenograft", "result": "did not show effect"}, {"measurement": "H&E staining of lung tissue (lung cancer cells in pulmonary alveoli)", "setting": "A549 cells; day 14 after transplantation", "result": "densely filled with lung cancer cells"}, {"measurement": "Brightness of luciferase (IVIS), lung", "setting": "A549 cells; day 14 after transplantation, after 2 administrations", "result": "increased"}, {"measurement": "Brightness of luciferase (IVIS), lung", "setting": "A549 cells; day 21 after transplantation, after total 4 administrations", "result": "increased"}]}, {"smiles": "O=C(O)CCCc1ccc(N(CCCl)CCCl)cc1", "note": "[Chlorambucil]", "values": [{"measurement": "IC50", "setting": "[6]", "result": 18.2, "unit": "µM"}, {"measurement": "IC50", "setting": "DU-145 cells", "result": 38.1, "unit": "µM"}, {"measurement": "IC50 (μM)", "setting": "[7]", "result": "Not measurable"}, {"measurement": "IC50", "setting": "LNCaP cells", "result": 37.6, "unit": "µM"}]}, {"smiles": "CC1=C(/C=C/C(C)=C/C=C/C(C)=C/C(=O)O)C(C)(C)CCC1", "note": "[ATRA, all-trans-retinoic acid]", "values": [{"measurement": "IC50", "setting": "UF1 (p53Null); 48 h", "result": 12.4, "unit": "µM"}, {"measurement": "IC50", "setting": "UF1 (p53Null); 72 h", "result": 10.3, "unit": "µM"}, {"measurement": "IC50", "setting": "NB4 (p53MT); 48 h", "result": 75.7, "unit": "µM"}, {"measurement": "IC50", "setting": "NB4 (p53MT); 72 h", "result": 60.1, "unit": "µM"}]}, {"smiles": "Cc1ccc(NC(=O)c2ccc(CN3CCN(C)CC3)cc2)cc1Nc1nccc(-c2cccnc2)n1", "note": "[imatinib, reference compound]", "values": [{"measurement": "H&E staining of bone marrow", "setting": "SU/SR cells [8]", "result": "little change"}, {"measurement": "Invasion of liver by transplanted PhALL cells (hCD45 staining)", "setting": "SU/SR cells [8]", "result": "not inhibited"}, {"measurement": "Invasion of spleen by transplanted PhALL cells (hCD45 staining), compared with liver", "setting": "SU/SR cells [8]", "result": "same results"}, {"measurement": "hCD45 staining of bone marrow (human leukemia cells)", "setting": "SU/SR cells [8]", "result": "filled with leukemia cells"}]}]}
